Data on 5 cell lines can be found in the supplement of paper PMC10307832.

What all share (test): relative viability (nuclei count vs DMSO), 5 days (fraction); higher = more cells survive
Compound in test [1]: O=C(O)c1ccc2c(c1)nc(Nc1cccc(Cl)c1)c1ccncc12 [Silmitasertib] + CC1(C)CCC(c2ccc(Cl)cc2)=C(CN2CCN(c3ccc(C(=O)NS(=O)(=O)c4ccc(N[C@H](CCN5CCOCC5)CSc5ccccc5)c(S(=O)(=O)C(F)(F)F)c4)cc3)CC2)C1 [Navitoclax] (partner 0.5 µM)
The method, boiled down:
(§1)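 Cells from lung cancer lines were seeded into 1536-well plates and, one day later, dosed by pin tool. Treatments were either a single drug or a fixed dose of an anchor drug with five library-drug doses (not always all listed) in √10 steps. After 5 days, nuclei were stained in a one-step fixation (final 0.05% Triton X-100, 1% formaldehyde, 1 ug/ml Hoechst) and counted on 4× images, and relative viability is the treated-to-vehicle nuclei ratio, as the median of duplicate plates.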

Compound in the test “Silmitasertib + Olaparib”: O=C(O)c1ccc2c(c1)nc(Nc1cccc(Cl)c1)c1ccncc12 [Silmitasertib] + O=C(c1cc(Cc2n[nH]c(=O)c3ccccc23)ccc1F)N1CCN(C(=O)C2CC2)CC1 [Olaparib] (partner 8 µM)
The procedure, abridged: as §1

Compound in test [2]: O=C(O)c1ccc2c(c1)nc(Nc1cccc(Cl)c1)c1ccncc12 [Silmitasertib] + COc1cc2c(Oc3ccc(NC(=O)C4(C(=O)Nc5ccc(F)cc5)CC4)cc3F)ccnc2cc1OCCCN1CCOCC1 [Foretinib] (partner 0.25 µM)
The procedure, abridged:
as §1

Compound in test [3]: O=C(O)c1ccc2c(c1)nc(Nc1cccc(Cl)c1)c1ccncc12 [Silmitasertib] + Cc1nc(Nc2ncc(C(=O)Nc3c(C)cccc3Cl)s2)cc(N2CCN(CCO)CC2)n1 [Dasatinib] (partner 0.075 µM)
The procedure, abridged: as §1

Compound in test [4]: O=C(O)c1ccc2c(c1)nc(Nc1cccc(Cl)c1)c1ccncc12 [Silmitasertib] + Nc1ncn([C@H]2C[C@H](O)[C@@H](CO)O2)c(=O)n1 [Decitabine] (partner 2 µM)
The method, boiled down:
as §1

On to NCI-H1437, for which the relative viability was determined as 1.11 in test [1] (first compound 0.04 µM); 0.906 in test [1] (first compound 1.265 µM); 0.828 in test [1] (first compound 4 µM); 0.648 with Silmitasertib + Olaparib (first compound 0.04 µM); 0.645 with Silmitasertib + Olaparib (first compound 0.4 µM); 0.521 with Silmitasertib + Olaparib (first compound 1.265 µM). Also, the relative viability amounted to 0.483 in the test with Silmitasertib + Olaparib (first compound 4 µM); 1.28 in test [2] (first compound 0.04 µM); 1.16 in test [2] (first compound 0.4 µM); 1.24 in test [2] (first compound 1.265 µM); 0.942 in test [2] (first compound 4 µM); 0.483 in test [3] (first compound 0.04 µM). The relative viability in test [3] (first compound 0.4 µM) amounted to 0.376; in test [3] (first compound 1.265 µM), 0.272; in test [3] (first compound 4 µM) it was 0.322; in test [4] (first compound 0.04 µM), 0.578; in test [4] (first compound 0.4 µM) it was 0.533; in test [4] (first compound 1.265 µM), 0.445. For the same cell line, the relative viability in test [4] (first compound 4 µM) came out at 0.411.
As to RERF-LC-KJ, the relative viability in test [1] (first compound 0.04 µM) is 0.863; in test [1] (first compound 0.4 µM), 0.85; in test [1] (first compound 1.265 µM), 0.782; in test [1] (first compound 4 µM) it was 0.436; in the test with Silmitasertib + Olaparib (first compound 0.04 µM), 0.909; with Silmitasertib + Olaparib (first compound 0.4 µM), 0.829. The relative viability with Silmitasertib + Olaparib (first compound 1.265 µM) worked out at 0.785; in the test with Silmitasertib + Olaparib (first compound 4 µM), 0.74; in test [2] (first compound 0.04 µM), 0.887; in test [2] (first compound 0.4 µM), 0.753; in test [2] (first compound 1.265 µM), 0.765; in test [2] (first compound 4 µM), 0.628. In addition, the relative viability was determined as 0.879 in test [3] (first compound 0.04 µM); 0.735 in test [3] (first compound 0.4 µM); 0.393 in test [3] (first compound 1.265 µM); 0.435 in test [3] (first compound 4 µM); 0.766 in test [4] (first compound 0.04 µM); 0.627 in test [4] (first compound 0.4 µM). The relative viability in test [4] (first compound 1.265 µM) is 0.455; in test [4] (first compound 4 µM), 0.344.
On to EPLC-272H, for which the relative viability in test [1] (first compound 0.04 µM) was determined as 1.09; in test [1] (first compound 1.265 µM), 0.747; in test [1] (first compound 4 µM) it was 0.807; with Silmitasertib + Olaparib (first compound 0.04 µM), 1.02; with Silmitasertib + Olaparib (first compound 0.4 µM), 0.563; with Silmitasertib + Olaparib (first compound 1.265 µM), 0.489. In addition, the relative viability with Silmitasertib + Olaparib (first compound 4 µM) stood at 0.0904; in test [2] (first compound 0.04 µM), 0.687; in test [2] (first compound 1.265 µM) it was 0.321; in test [2] (first compound 4 µM), 0.219; in test [3] (first compound 0.04 µM), 0.372; in test [3] (first compound 1.265 µM), 0.255. Also, the relative viability in test [3] (first compound 4 µM) came to 0.224; in test [4] (first compound 0.04 µM), 0.475; in test [4] (first compound 1.265 µM) it was 0.296; in test [4] (first compound 4 µM) it was 0.348.
For NCI-H596, the relative viability in test [1] (first compound 0.04 µM) stood at 1.09; in test [1] (first compound 0.4 µM), 0.882; in test [1] (first compound 1.265 µM), 0.902; in test [1] (first compound 4 µM), 0.787; with Silmitasertib + Olaparib (first compound 0.04 µM), 0.659; with Silmitasertib + Olaparib (first compound 0.4 µM) it was 0.597. For the same cell line, the relative viability with Silmitasertib + Olaparib (first compound 1.265 µM) was determined as 0.685; with Silmitasertib + Olaparib (first compound 4 µM), 0.654; in test [2] (first compound 0.04 µM), 0.817; in test [2] (first compound 0.4 µM) it was 0.74; in test [2] (first compound 1.265 µM) it was 0.787; in test [2] (first compound 4 µM) it was 0.871. For the same cell line, the relative viability turned out to be 0.617 in test [3] (first compound 0.04 µM); 0.563 in test [3] (first compound 0.4 µM); 0.463 in test [3] (first compound 1.265 µM); 0.497 in test [3] (first compound 4 µM); 0.909 in test [4] (first compound 0.04 µM); 1.05 in test [4] (first compound 0.4 µM). Further, the relative viability in test [4] (first compound 1.265 µM) was 1.05; in test [4] (first compound 4 µM), 0.785.
With NCI-H322M, the relative viability in test [1] (first compound 0.04 µM) was 1.23; in test [1] (first compound 0.4 µM), 0.932; in test [1] (first compound 1.265 µM), 0.799; in test [1] (first compound 4 µM), 0.479; with Silmitasertib + Olaparib (first compound 0.04 µM) it was 0.7; with Silmitasertib + Olaparib (first compound 0.4 µM) it was 0.608. The relative viability with Silmitasertib + Olaparib (first compound 1.265 µM) worked out at 0.456; in the test with Silmitasertib + Olaparib (first compound 4 µM), 0.39; in test [2] (first compound 0.04 µM), 1.01; in test [2] (first compound 0.4 µM) it was 0.836; in test [2] (first compound 1.265 µM), 0.623; in test [2] (first compound 4 µM), 0.544. For the same cell line, the relative viability was 0.243 in test [3] (first compound 0.04 µM); 0.294 in test [3] (first compound 0.4 µM); 0.282 in test [3] (first compound 1.265 µM); 0.294 in test [3] (first compound 4 µM); 0.727 in test [4] (first compound 0.04 µM); 0.686 in test [4] (first compound 0.4 µM). Moreover, the relative viability in test [4] (first compound 1.265 µM) came to 0.674; in test [4] (first compound 4 µM) it was 0.649.
